Consider 72 compounds from PubChem BioAssay AID1996.

The structures appear in SMILES notation. ≈ marks a conversion by molar mass, not a printed value. Bounds are passed on as bounds.

For the data set the following is noted: buffer; pH 7.4; 200.0 µM.
For orientation: kinetic solubility means the concentration staying in solution when a stock, usually in DMSO, is diluted into the medium. Regarding `O=C(COC(=O)c1cccc(F)c1)Nc1ccc(Cl)cn1`, the kinetic solubility was found to be 6.2 µg/mL (≈ 20.1 µM).
The result for `O=c1c2ccccc2nc(/C=C/c2c[nH]c3ccccc23)n1CCO` reads 8.6 µg/mL (≈ 26 µM); that for `Cc1cccc(NS(=O)(=O)c2ccc3c(c2)NC(=O)CC(=O)N3)c1`, more than 51.8 µg/mL; that for `CCOC(=O)c1sc(=NC(=O)COc2ccccc2)n(C)c1C`, 1.4 µg/mL (≈ 4.19 µM).
The result for `O=C(Nc1nc2ccccc2s1)c1ccc([N+](=O)[O-])o1` reads less than 0.2 µg/mL.
The figure for `O=C(NCC(=O)N1CCCCCC1)c1ccc(OC(F)F)cc1` is more than 49 µg/mL; for `CCOc1cccc(C(=O)NC(=S)Nc2ccc(Cl)cc2C(=O)O)c1` it is 55.2 µg/mL (≈ 146 µM).
As for `CN(C)C(=O)c1cc(C(=O)c2ccc(C(F)(F)F)cc2)c[nH]1`, the kinetic solubility is 1.6 µg/mL (≈ 5.16 µM).
The result for `O=C1NC2(CCCCC2)N(C(=O)c2ccccc2)C2=C1CCCC2` reads 8.1 µg/mL (≈ 25 µM).
Take `O=C(c1cc(Cl)ccc1O)N1CCN(S(=O)(=O)Cc2ccccc2)CC1`: the solubility (kinetic) is more than 59.2 µg/mL.
The figure for `Brc1c(-c2ccccc2)nc2n1Cc1ccccc1-2` is 0.6 µg/mL (≈ 1.93 µM).
The figure for `O=C(Nc1cccc(Cl)c1)N1CCc2ccccc2C1` is 1.9 µg/mL (≈ 6.63 µM); for `CCN1CCCC1CNC(=O)c1cc2ccc(OC)cc2[nH]1` (configuration not stated) it is more than 45.2 µg/mL.
The figure for `Cc1cc(O)c(C2(O)C(=O)Nc3ccccc32)cc1C` (configuration not stated) is more than 40.4 µg/mL.
In turn, `CCSc1nc2sc3c(c2c(=O)n1-c1ccc(C)cc1)CCN(C)C3` yielded a kinetic solubility of 35.6 µg/mL (≈ 95.8 µM).
The result for `CCOC(=O)N1CCN(C(=O)/C=C/c2ccc(C(C)(C)C)cc2)CC1` reads 22.9 µg/mL (≈ 66.5 µM); that for `COc1ccc(CCC(=O)OCC(=O)Nc2ccccc2)cc1`, more than 47 µg/mL; that for `CC(NC(=O)/C(C#N)=C/c1ccco1)c1ccccc1` (configuration not stated), 38.8 µg/mL (≈ 146 µM).
Compound `S=C(Nc1ccccc1)N1CCCCCCC1` returned a solubility (kinetic) of more than 37.3 µg/mL.
`Cl.O=C(c1cc2c(s1)CCCC2)N1CCN(CCO)CC1` displayed a solubility (kinetic) of more than 49.6 µg/mL.
The figure for `Cc1ccc(C(=O)N2CCC(C(=O)c3c(C)cc(C)cc3C)CC2)cc1` is 24.1 µg/mL (≈ 69 µM).
The figure for `COCCN(CC(=O)Nc1cccc(C)c1C)C(=O)C1(c2ccccc2)CC1` is more than 57.1 µg/mL; for `CN1CCCN(S(=O)(=O)c2ccccc2)CC1.Cl` it is 39.8 µg/mL; for `CCC(=O)c1cn(CC(=O)Nc2ccccc2F)c2ccccc12` it is 3.2 µg/mL (≈ 9.87 µM).
The result for `CCN(CC(=O)N1CCCCC1)S(=O)(=O)c1ccccc1` reads 42.4 µg/mL (≈ 137 µM); that for `O=C(CN1C(=O)NC(c2ccccc2)(c2ccccc2)C1=O)N1CCCCC1`, 6.2 µg/mL (≈ 16.4 µM); that for `Cc1cccc(CCN=C(N)NS(=O)(=O)c2ccccc2)c1`, more than 47.6 µg/mL.
In turn, `CCc1cccc(C)c1NC(=S)N1CCCCC1c1cccnc1` (configuration not stated) displayed a solubility (kinetic) of 46.3 µg/mL (≈ 136 µM).
`CC1(c2ccc3noc(-c4cccc(F)c4)c3c2)OCCO1` had a kinetic solubility of less than 0.6 µg/mL.
The figure for `Nc1nc(SCc2ccccc2)c2[nH]cnc2n1` is 38.4 µg/mL (≈ 149 µM).
The figure for `O=C(COc1ccc([N+](=O)[O-])cc1Cl)NCC1CCCO1` (configuration not stated) is more than 47.2 µg/mL; for `COc1cc(CC(=O)OCC(=O)Nc2ccc(N(C)C)cc2)cc(OC)c1OC` it is more than 60.4 µg/mL.
In the case of `O=C(NC(O)C(=O)c1ccccc1)c1ccccn1` (configuration not stated), the solubility (kinetic) was more than 38.4 µg/mL.
The result for `Cn1nccc1C(=O)OCC(=O)Nc1cccc(Cl)c1` reads more than 44.1 µg/mL.
`c1ccc(CCNCCCOc2cccc3ccccc23)cc1` showed a kinetic solubility of 37.1 µg/mL (≈ 121 µM).
As for `COc1ccccc1C(=O)Nc1cccc2c1CCCC2`, the solubility (kinetic) is less than 0.6 µg/mL.
The figure for `NC(CO)(CO)CO.O=C(c1ccccc1)c1ccc2n1CCC2C(=O)O` (configuration not stated) is more than 56.5 µg/mL; for `CN(CCOc1ccccc1)CC(=O)Nc1cc([N+](=O)[O-])ccc1Cl` it is 13.7 µg/mL (≈ 37.7 µM); for `CCOC(=O)CSC1=NN2CCS(=O)(=O)N=C2S1` it is more than 46.4 µg/mL.
`Cc1ccc(C(C)NC(=O)c2cc3ccccc3oc2=O)cc1C` (configuration not stated) displayed a kinetic solubility of 0.8 µg/mL (≈ 2.49 µM).
The result for `Cc1ccc(Cl)cc1NC(=O)C1CCCN(S(C)(=O)=O)C1` (configuration not stated) reads 5.8 µg/mL (≈ 17.5 µM); that for `CCC(C)c1ccccc1NC(=O)CN(CC)CC(=O)Nc1ccc2c(c1)OCCO2` (configuration not stated), 38.3 µg/mL (≈ 90 µM).
Take `CCOc1ccc2oc(=O)cc(CN3CCOCC3)c2c1`: the kinetic solubility amounted to 41.5 µg/mL (≈ 143 µM).
The result for `CC1CCCC(C)N1C(=O)COC(=O)c1ccc(S(=O)(=O)N(C)c2ccccc2)cc1` (configuration not stated) reads 6.9 µg/mL (≈ 15.5 µM).
`CCN1CCN(C/C(C)=C/c2ccccc2)CC1` gave a kinetic solubility of 27.2 µg/mL (≈ 111 µM).
The result for `CCNc1nc(OC)nc(N(OC)S(=O)(=O)c2ccc(C)cc2)n1` reads more than 53 µg/mL; that for `Cc1nc2ccccn2c1C(=O)NN=C1CCCC1`, more than 38.4 µg/mL; that for `Cc1cc(C)cc(NC(=O)c2cccnc2)c1`, more than 33.9 µg/mL.
Compound `Cc1nc([N+](=O)[O-])cn1CC(O)c1ccc(F)cc1` (configuration not stated) registered a solubility (kinetic) of more than 39.8 µg/mL.
The result for `CCCc1ccc2oc(C(=O)N(C)Cc3cnccn3)c(C)c2c1` reads 26.8 µg/mL (≈ 82.9 µM).
`O=C(CSc1ncccn1)NC(=O)NCc1ccco1` displayed a kinetic solubility of 40.8 µg/mL (≈ 140 µM).
As to `Cc1nn(CC(=O)N(CC(C)C)C2CCS(=O)(=O)C2)c(C)c1[N+](=O)[O-]` (configuration not stated), the kinetic solubility is more than 55.9 µg/mL.
`Cc1ccc(C)c(NC(=O)C(CC(=O)O)Cc2ccccc2)c1` (configuration not stated) had a solubility (kinetic) of more than 46.7 µg/mL.
The result for `CC(=O)NC(CC(=O)Nc1ccc(S(=O)(=O)N2CCOCC2)cc1)c1ccccc1` (configuration not stated) reads more than 64.7 µg/mL; that for `CCOC(=O)c1c(C)nc(C)c2c(=O)oc3ccccc3c12`, less than 0.6 µg/mL.
The result for `CC(C)COc1cccc(C(=O)NC2(C)CCS(=O)(=O)C2)c1` (configuration not stated) reads more than 48.8 µg/mL; that for `COc1c(Cl)ccc(Cl)c1C(=O)NC(=S)N1CCOCC1`, more than 52.4 µg/mL.
The figure for `CN(c1ccccc1)S(=O)(=O)c1cccc(C(=O)OCC(=O)Nc2ccc(C(N)=O)cc2)c1` is 9.9 µg/mL (≈ 21.2 µM); for `CC1(C(=O)O)CCC(C(=O)N2CCCCC2)C1(C)C` (configuration not stated) it is more than 40.1 µg/mL.
`Cc1cc(C)cc(OCC(=O)O/N=C(\N)c2cccnc2)c1` had a kinetic solubility of 38.3 µg/mL (≈ 128 µM).
Turning to `Cc1nc(C(=O)NCC(=O)c2ccc(Cl)cc2)c(C(F)(F)F)o1`, the kinetic solubility was 8.4 µg/mL (≈ 24.2 µM).
The figure for `Cc1ccc(C2(C)NC(=O)N(CC(=O)Nc3ccc4c(c3)CCC4)C2=O)cc1` (configuration not stated) is 3.5 µg/mL (≈ 9.27 µM).
The result for `O=C(COc1ncnc2ccccc12)Nc1cccc([N+](=O)[O-])c1` reads 15.1 µg/mL (≈ 46.6 µM).
For `COc1cc(OC)cc(C(=O)NCC(=O)OCC(=O)NC2CCCc3ccccc32)c1` (configuration not stated), the solubility (kinetic) amounted to 58.5 µg/mL (≈ 137 µM).
The result for `CN(C)CCN(C(=O)c1ccc2ccccc2c1)c1nc2c(F)cc(F)cc2s1.Cl` reads 32.8 µg/mL.
The figure for `CN(CC(=O)Nc1ccc(F)cc1)C(=O)CCc1ccccc1` is 41.9 µg/mL (≈ 133 µM); for `O=C(N/N=C/c1ccc(O)c(O)c1)C1CC1` it is more than 33 µg/mL; for `CCOC(=O)N1CCN(Cc2ccc(O)c3ncccc23)CC1` it is 34.3 µg/mL (≈ 109 µM).
`O=c1nc2n(c3cccc(Cl)c13)CCCCC2` showed a kinetic solubility of 31 µg/mL (≈ 125 µM).
The figure for `COCCNc1nc(N)c([N+](=O)[O-])c(Nc2ccc(F)cc2)n1` is 0.9 µg/mL (≈ 2.79 µM).
The result for `COc1ccc(OC)c(N(CC(=O)Nc2cccc3ccccc23)S(C)(=O)=O)c1` reads 43 µg/mL (≈ 104 µM).
The result for `NS(=O)(=O)c1ccc(NC(=O)CN2C(=O)CCC2=O)cc1` reads more than 46.7 µg/mL.
